Where “and” joins values, the source holds several entries; their conditions need not be identical. Equal values may be shown once.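 These data come from cells grown in 96-well plates and exposed to compound for 48 hours at five concentrations. GI50 is the concentration that inhibits growth by half. TGI is the concentration that stops growth completely.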
How the values were obtained:
Experiment in all cases: growth of human tumour cells (NCI), 48 h
[1] = system: IGROV1 ovarian
[2] = system: HCT-116 colon
[3] = system: HL-60(TB) leukemia
[4] = system: HCT-15 colon
[5] = system: HOP-92 NSCLC
[6] = system: MDA-MB-231 breast
[7] = system: HT29 colon
[8] = system: MCF7 breast
[9] = system: CCRF-CEM leukemia
[10] = system: DU-145 prostate

| SMILES | GI50 [1] | TGI [1] | GI50 [2] | TGI [2] | TGI [3] | GI50 [4] | TGI [4] | GI50 [5] | TGI [5] | GI50 [6] | TGI [6] | GI50 [7] | TGI [7] | GI50 [8] | TGI [8] | GI50 [9] | TGI [9] | GI50 [10] | TGI [10] | GI50 [3] |
| --- | --- | --- | --- | --- | --- | --- | --- | --- | --- | --- | --- | --- | --- | --- | --- | --- | --- | --- | --- | --- |
| C=C1C(OC/C=C/COC2O[C@@H]3O[C@@]4(C)CC[C@H]5[C@H](C)CC[C@@H](C2=C)[C@@]35OO4)O[C@@H]2O[C@@]3(C)CC[C@H]4[C@H](C)CC[C@@H]1[C@@]24OO3 (stereo not given in full) | 1.6 µM | > 36.6 µM | 0.0907 µM | 16.6 µM | 47.1 µM | < 0.0194 µM | 16 µM | 1.14 µM | 36.3 µM | 11.4 µM | 51.3 µM | 0.0438 µM | > 49.2 µM | 0.0801 µM | 16.2 µM | 0.0325 µM | > 40 µM | 15.5 µM | 37.6 µM |  |
| CN(C)CCSCCO |  | > 100 µM |  | > 100 µM | > 100 µM |  | > 100 µM |  | > 100 µM |  | > 100 µM |  | > 100 µM |  | > 100 µM |  |  |  | > 100 µM |  |
| COc1cc(C2CC(=O)Nc3c2ccc2ccccc32)cc(Br)c1OC (stereo not given) | 0.86 µM | > 42.3 µM | 0.373 µM | > 34.7 µM | 0.462 µM | 0.445 µM | > 90.5 µM | 0.176 µM | 2.42 µM | 2.83 µM | > 46.7 µM | 0.37 µM | 18.2 µM | 0.343 µM | > 40.6 µM | 0.292 µM | 1.41 µM | 0.653 µM | > 38.2 µM | 0.212 µM |
| Cc1cnccc1N=Nc1ccc(N(C)C)cc1 |  | 99.6 µM |  | > 100 µM | > 100 µM |  | > 100 µM |  | 36.1 µM |  | 70.6 µM |  | 53.9 µM |  | 35 µM |  | > 100 µM |  | > 100 µM |  |
| NCCCN1CCN(CCCNc2nc3ccccc3c3[nH]c4ccccc4c23)CC1 | 0.638 µM | 4.38 µM | 0.337 µM | 2.7 µM | 3.26 µM | 0.436 µM | 7.83 µM | 0.346 µM | 2.1 µM | 0.456 µM | 1.72 µM | 0.212 µM | 1.99 µM | 0.181 µM | 1.33 µM | 0.385 µM |  | 0.299 µM | 7.83 µM | 0.425 µM |
| O=c1oc2c3ccc4cnccc4c3[nH]c2c2ccccc12 | 12.7 µM | > 100 µM | 1.58 µM | 2.99 µM | > 100 µM | 30.7 µM | > 100 µM | 10.2 µM | 35 µM | 16.9 µM | 38.5 µM | 10.5 µM | 37.2 µM | 2.24 µM | 6.17 µM | 3.94 µM | 11.6 µM | 12.3 µM | 32.9 µM | 17.3 µM |
| C=C(CNC(=O)c1ccccc1)c1ccc(C(=O)Nc2ccccc2N)cc1 | 19.5 µM | > 100 µM | 1.6 µM | 15.2 µM |  | 8.14 µM | > 100 µM | 1.15 µM | > 100 µM | 5.56 µM | 45.1 µM | 3.86 µM | > 100 µM | 3.2 µM | > 100 µM | 0.493 µM | 8.38 µM | 4.08 µM | > 100 µM |  |
| N#C/C(=C\c1c(-c2ccccc2)[nH]c2ccccc12)C(=O)c1ccccc1 | 2.53 µM | 24.2 µM | 5.29 µM | > 100 µM |  | 3.53 µM | > 100 µM | 4.51 µM | 28.7 µM | 13.2 µM | > 100 µM | 3.41 µM | > 100 µM | 3.95 µM | > 100 µM | 7.27 µM | > 100 µM | 5.22 µM | > 100 µM |  |
| Nc1c(C(=O)N/N=C/c2ccc(-c3cc(Cl)c(Cl)cc3Cl)o2)cnn1-c1ccnc2c(C(F)(F)F)cccc12 | 4.53 µM | > 100 µM | 3.42 µM | > 100 µM | > 100 µM | 3.43 µM | > 100 µM | 2.57 µM | 7 µM | 3.83 µM | 22 µM | 2.73 µM | 28 µM | 3.42 µM | > 100 µM | 3.9 µM | > 100 µM | 3.56 µM | > 100 µM | 3.18 µM |
| CCNNC(=O)[C@@H]1[C@H](c2cc(OC)c(OC)c(OC)c2)c2cc3c(cc2[C@H](O)[C@H]1CO)OCO3 | 0.59 µM | > 100 µM | 0.354 µM | > 100 µM | 0.707 µM | 0.398 µM | > 100 µM | 0.433 µM | > 100 µM | 0.5 µM | > 100 µM | 0.351 µM | 13 µM | 0.36 µM | > 100 µM | 0.316 µM | > 100 µM | 0.537 µM | > 100 µM | 0.277 µM |
| C=C1C(=O)OC2/C=C(\CO)CC/C=C(\CO)CC(OC(=O)C(C)C)C12 (stereo not given) |  | 33.6 µM |  | 47.9 µM | > 24.8 µM |  | 11.6 µM |  | 4.13 µM |  | 38 µM |  | 30 µM |  | 8.85 µM |  | > 33.2 µM |  | 29.5 µM |  |
| CCc1ccc2nccc(NCCCN(C)C)c2c1[N+](=O)[O-] |  | > 100 µM |  | > 100 µM | > 100 µM |  |  |  | > 100 µM |  | > 100 µM |  | > 100 µM |  | > 100 µM |  | > 100 µM |  | > 100 µM |  |
| O=S(=O)(NC1=NCCN1C(=S)SN1CCn2c1nsc2=S)c1ccccc1Cl | 34.8 µM | > 100 µM | 12.2 µM | 28.2 µM | 8.62 µM | 18.7 µM | 53 µM | 11 µM | 89.7 µM | 22.5 µM | 71.1 µM | 15.4 µM | > 100 µM | 11.5 µM | > 100 µM |  |  | 9.15 µM | 53.1 µM | 0.342 µM |
| COc1c(Cl)ccc2c(-c3nc4cc(Cl)c(F)cc4s3)cc(=O)oc12 | 1.68 µM | 3.97 µM | 14.1 µM | > 61.6 µM | 5.39 µM | 11.7 µM | 51 µM | 1.77 µM | 4.07 µM | 2.84 µM | 11.2 µM | 2.76 µM | 6.54 µM | 9.13 µM | > 79 µM |  |  | 13.9 µM | 39.9 µM | 2.44 µM |
| OCC(CCc1c[nH]c2ccccc12)c1c[nH]c2ccccc12 (stereo not given) |  | 27.5 µM |  | 29.2 µM | 26.6 µM |  | 32.2 µM |  | 32.7 µM |  | 27.6 µM |  | 30.7 µM |  | 35 µM |  |  |  | 32.7 µM |  |
| CCN(CC)CCn1c2ccc(OC)cc2c2sc3cc(OC)ccc3c(=O)c21 | 1.53 µM | 3.61 µM | 0.659 µM | 2.02 µM | 4.22 µM | 0.861 µM | 2.66 µM | 1.13 µM | 2.75 µM | 1.54 µM | 3.31 µM | 1.51 µM | 9.12 µM | 1.16 µM | 2.45 µM |  |  | 1.67 µM | 3.7 µM | 1.77 µM |
| Nc1cc(S(N)(=O)=O)ccc1SSc1ccc(S(N)(=O)=O)cc1N |  | > 100 µM |  | > 100 µM | > 100 µM |  | > 100 µM |  | > 100 µM |  | > 100 µM |  | > 100 µM |  | > 100 µM |  |  |  | > 100 µM |  |
| CC(C)C[C@H](NC(=O)[C@H](Cc1cccc2ccccc12)NS(=O)(=O)c1cccc2cccnc12)B(O)O | 0.0331 µM | 0.298 µM and 0.301 µM | 0.00101 µM | 0.0203 µM and < 0.0351 µM |  | 0.13 µM | 0.403 µM | 0.0299 µM | 0.0547 µM and 0.0938 µM |  | 0.0567 µM and 0.0597 µM | 0.000937 µM | 0.022 µM | 0.000525 µM | > 30.5 µM |  |  |  | 0.524 µM | 0.000204 µM |
| COc1cc(NC(=O)NCc2ccco2)ccc1-c1ccc(NC(=O)NCc2ccco2)cc1OC |  |  | 0.696 µM | > 100 µM | > 100 µM | 0.398 µM | > 100 µM | 2.67 µM | 7.76 µM | 1.41 µM | 3.98 µM |  |  | 1.49 µM | 4.68 µM | 16.8 µM | > 100 µM | 3.01 µM | > 100 µM | > 100 µM |
| Clc1ccc(CNc2nccc(-c3cnn4ncccc34)n2)cc1 | 6.72 µM | > 23.3 µM | 7.92 µM | > 25 µM | > 22.3 µM | 8.5 µM | > 25 µM |  |  | 8.5 µM | > 25 µM | 6.46 µM | 21.1 µM | 5.91 µM | > 25 µM | 9.69 µM | > 25 µM | 8.73 µM | > 25 µM | 8.69 µM |
| NS(=O)(=O)c1ccc(-n2ncc3c(Nc4ccccc4)ncnc32)cc1 |  |  | 27.4 µM | > 100 µM | 92.7 µM | 19.1 µM | > 100 µM | 23.6 µM | > 100 µM | 15 µM | 87.1 µM | 3.33 µM | 15.7 µM | 49.2 µM | > 100 µM | 17.7 µM | 92.5 µM | 35.6 µM | > 100 µM | 6.59 µM |
| c1ccc(B2OCC(C3OB(c4ccccc4)OC4COB(c5ccccc5)OC43)O2)cc1 (stereo not given) |  | > 100 µM |  | > 100 µM |  |  | > 100 µM |  | > 100 µM |  | > 100 µM |  | > 100 µM |  | > 100 µM |  | > 100 µM |  | > 100 µM |  |

From PubChem BioAssay (NCI)
